The values below come from ChEMBL document CHEMBL1157024, “First synthesis and biological evaluation of novel spin-labeled derivatives of deoxypodophyllotoxin” (Eur J Med Chem, 2010).

As usually defined, the IC50 is the concentration that gives 50% inhibition.

One experiment concerns RPMI-8226. Nature of the experiment: Cytotoxicity against human RPMI8226 cells after 72 hrs by CCK8 method. The class given is functional, cell-based. (In general: Tetrazolium dyes change colour on reduction, which living cells bring about.)
For another experiment, the system named is Kidney. Nature of the experiment: Antioxidant activity in Sprague-Dawley rat kidney assessed as lipid peroxidation by thiobarbituric acid assay. The class given is functional, tissue-based.
For another experiment, the system named is A549. The experiment can be described thus: Cytotoxicity against human A549 cells after 48 hrs by MTT assay. The class given is functional, cell-based.
The subject of a further experiment is HL-60. Nature of the experiment: Cytotoxicity against human HL60 cells after 72 hrs by CCK8 method. The class given is functional, cell-based.
The subject of a further experiment is Liver. Nature of the experiment: Antioxidant activity in Sprague-Dawley rat liver assessed as lipid peroxidation by thiobarbituric acid assay. The class given is functional, tissue-based.
The mark [1] stands for this setting: Rattus norvegicus, Sprague-Dawley, Kidney.
[2] abbreviates: Rattus norvegicus, Sprague-Dawley, Liver.

For the compound `COc1cc([C@@H]2c3cc4c(cc3C[C@H]3COC(=O)[C@@H]32)OCO4)cc(OC)c1OC(=O)CNC(=O)OC1CC(C)(C)N([O])C(C)(C)C1`, the half-inhibitory concentration (IC50) in the experiment on RPMI-8226 (rpmi-8226) came out at 73 nM; with Kidney, 13700 nM; in the experiment with A549 (a549) it was 620 nM; in the experiment with HL-60 (hl-60), 8.7 nM; in the experiment on Liver, 14400 nM.
With `COc1cc([C@@H]2c3cc4c(cc3C[C@H]3COC(=O)[C@@H]32)OCO4)cc(OC)c1OC(=O)[C@H](C)NC(=O)OC1CC(C)(C)N([O])C(C)(C)C1`, the IC50 worked out at 44 nM in the experiment on RPMI-8226 (rpmi-8226); 15800 nM with Kidney; 670 nM in the experiment on A549 (a549); 12 nM in the experiment with HL-60 (hl-60); 15300 nM in the experiment with Liver.
With `COc1cc([C@@H]2c3cc4c(cc3C[C@H]3COC(=O)[C@@H]32)OCO4)cc(OC)c1OC(=O)[C@@H](NC(=O)OC1CC(C)(C)N([O])C(C)(C)C1)C(C)C`, the 50% inhibitory concentration (IC50) in the experiment on RPMI-8226 (rpmi-8226) turned out to be 160 nM; in the experiment on Kidney, 20300 nM; in the experiment with A549 (a549) it was 550 nM; in the experiment on HL-60 (hl-60) it was 24 nM; with Liver, 19300 nM.
Take `COc1cc([C@@H]2c3cc4c(cc3C[C@H]3COC(=O)[C@@H]32)OCO4)cc(OC)c1OC(=O)[C@H](CC(C)C)NC(=O)OC1CC(C)(C)N([O])C(C)(C)C1`: the IC50 in the experiment with RPMI-8226 (rpmi-8226) amounted to 110 nM; in the experiment with Kidney it was 12100 nM; in the experiment on A549 (a549), 770 nM; in the experiment on HL-60 (hl-60), 85 nM; in the experiment on Liver, 18000 nM.
Regarding `CC[C@H](C)[C@H](NC(=O)OC1CC(C)(C)N([O])C(C)(C)C1)C(=O)Oc1c(OC)cc([C@@H]2c3cc4c(cc3C[C@H]3COC(=O)[C@@H]32)OCO4)cc1OC`, the half-inhibitory concentration (IC50) in the experiment on RPMI-8226 (rpmi-8226) worked out at 58 nM; in the experiment with Kidney it was 6890 nM; with A549 (a549) it was 830 nM; in the experiment with HL-60 (hl-60) it was 36 nM; with Liver it was 13200 nM.
Take `COc1cc([C@@H]2c3cc4c(cc3C[C@H]3COC(=O)[C@@H]32)OCO4)cc(OC)c1OC(=O)[C@@H]1CCCN1C(=O)OC1CC(C)(C)N([O])C(C)(C)C1`: the IC50 came to 130 nM with RPMI-8226 (rpmi-8226); 14600 nM in the experiment with Kidney; 600 nM in the experiment on A549 (a549); 140 nM in the experiment on HL-60 (hl-60); 9700 nM in the experiment on Liver.
Regarding `COc1cc([C@@H]2c3cc4c(cc3C[C@H]3COC(=O)[C@@H]32)OCO4)cc(OC)c1OC(=O)[C@H](Cc1ccccc1)NC(=O)OC1CC(C)(C)N([O])C(C)(C)C1`, the IC50 was found to be 31 nM with RPMI-8226 (rpmi-8226); 15000 nM with Kidney; 500 nM in the experiment on A549 (a549); 18 nM in the experiment on HL-60 (hl-60); 10400 nM in the experiment with Liver.
`COc1cc([C@@H]2c3cc4c(cc3C[C@H]3COC(=O)[C@@H]32)OCO4)cc(OC)c1OC(=O)[C@H](Cc1ccc(O)cc1)NC(=O)OC1CC(C)(C)N([O])C(C)(C)C1`: the IC50 with RPMI-8226 (rpmi-8226) turned out to be 43 nM; in the experiment with Kidney, 16300 nM; in the experiment on A549 (a549), 270 nM; in the experiment on HL-60 (hl-60), 32 nM; in the experiment on Liver, 15200 nM.
In the case of `COc1cc([C@@H]2c3cc4c(cc3C[C@H]3COC(=O)[C@@H]32)OCO4)cc(OC)c1O` [4'-DEMETHYLDEOXYPODOPHYLLOTOXIN], the IC50 in the experiment with RPMI-8226 (Homo sapiens, RPMI-8226, 72 h) turned out to be 230 nM; in the experiment on Kidney (setting [1]) it was 23000 nM; in the experiment with A549 (Homo sapiens, A549, 48 h) it was 800 nM; in the experiment on HL-60 (Homo sapiens, HL-60, 72 h), 110 nM; in the experiment on Liver (setting [2]), 33800 nM.
The matching figures for `COc1cc([C@@H]2c3cc4c(cc3[C@@H](O[C@@H]3O[C@@H]5CO[C@@H](C)O[C@H]5[C@H](O)[C@H]3O)[C@H]3COC(=O)[C@H]23)OCO4)cc(OC)c1O` [ETOPOSIDE]: 700 nM, 64600 nM, 830 nM, 180 nM and 46400 nM.
